Source: PubChem BioAssay (NCI)
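Tested at 5 concentrations; 48 h exposure; 96-well plates; endpoints linearly interpolated, else capped at highest concentration. Abbreviation: GI50, concentration required for 50% inhibition of growth. TGI is the concentration that stops growth completely.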

Columns and labels:
Test in all cases: NCI anticancer screen, dose series, 48 h
[1] = test system: IGROV1 ovarian
[2] = test system: NCI-H522 lung
[3] = test system: A498 renal
[4] = test system: OVCAR-8 ovarian
[5] = test system: CAKI-1 renal
[6] = test system: U251 CNS
[7] = test system: RXF 393 renal
[8] = test system: OVCAR-4 ovarian
[9] = test system: ACHN renal
[10] = test system: M14 melanoma
[11] = test system: MCF7 breast
[12] = test system: T-47D breast
[13] = test system: NCI-H460 lung
[14] = test system: UACC-257 melanoma
[15] = test system: 786-0 renal
[16] = test system: HCT-116 colon
[17] = test system: KM12 colon
[18] = test system: SNB-75 CNS
[19] = test system: K-562 leukemia
[20] = test system: HCT-15 colon
[21] = test system: NCI-H23 lung
[22] = test system: NCI-H226 lung
[23] = test system: PC-3 prostate
[24] = test system: COLO 205 colon
[25] = test system: CCRF-CEM leukemia
[26] = test system: SF-268 CNS
[27] = test system: NCI/ADR-RES ovarian
[28] = test system: OVCAR-3 ovarian
[29] = test system: TK-10 renal
[30] = test system: SF-295 CNS
[31] = test system: SNB-19 CNS
[32] = test system: SN12C renal
[33] = test system: MDA-MB-231 breast
[34] = test system: RPMI-8226 leukemia
[35] = test system: HOP-62 NSCLC
[36] = test system: HT29 colon
[37] = test system: SR leukemia
[38] = test system: LOX IMVI melanoma
[39] = test system: HL-60(TB) leukemia
[40] = test system: UO-31 renal
[41] = test system: HS 578T breast
[42] = test system: OVCAR-5 ovarian
[43] = test system: SK-OV-3 ovarian
[44] = test system: SK-MEL-28 melanoma
[45] = test system: A549 NSCLC
[46] = test system: MDA-MB-435
[47] = test system: SW-620 colon
[48] = test system: BT-549 breast
[49] = test system: MALME-3M melanoma
[50] = test system: DU-145 prostate
[51] = test system: SK-MEL-5 melanoma
[52] = test system: SF-539 CNS
[53] = test system: EKVX NSCLC
[54] = test system: MOLT-4 leukemia
[55] = test system: HOP-92 NSCLC
[56] = test system: UACC-62 melanoma

Compound `COc1ccc(-c2ccc(/C=N/n3c(COc4ccccc4Cl)n[nH]c3=S)o2)c([N+](=O)[O-])c1` has a GI50 [1] of 52.7 µM, a TGI [1] greater than 100 µM and a GI50 [2] of 49 µM. For the same compound, the TGI [2] was greater than 100 µM, the GI50 [3] was 14.4 µM and the TGI [3] was 40.6 µM. For the same compound, the GI50 [4] was 21.3 µM, the TGI [4] was 55.4 µM and the GI50 [5] was 24.6 µM. It also gave a TGI [5] of 59.3 µM, a GI50 [6] of 22 µM and a TGI [6] of 57.5 µM. The GI50 [7] was 15.5 µM, the TGI [7] was 52.1 µM and the GI50 [8] was 45.4 µM. For the same compound, the TGI [8] was greater than 100 µM, the GI50 [9] was 25.6 µM and the TGI [9] was 69.5 µM. The GI50 [10] was 26.6 µM, the TGI [10] was 79.1 µM and the GI50 [11] was 18.7 µM. For the same compound, the TGI [11] was 40.5 µM, the GI50 [12] was 21.8 µM and the TGI [12] was 86.2 µM. It also gave a GI50 [13] of 23.7 µM, a TGI [13] of 52.7 µM and a GI50 [14] of 28.4 µM. The TGI [14] was 63.5 µM, the GI50 [15] was 28.4 µM and the TGI [15] was greater than 100 µM. It also gave a GI50 [16] of 17.3 µM, a TGI [16] of 33.8 µM and a GI50 [17] of 20.9 µM. The TGI [17] was 49.5 µM, the GI50 [18] was greater than 100 µM and the TGI [18] was greater than 100 µM. For the same compound, the GI50 [19] was 34.1 µM, the TGI [19] was greater than 100 µM and the GI50 [20] was 26.5 µM. For the same compound, the TGI [20] was 89.2 µM, the GI50 [21] was 18.5 µM and the TGI [21] was 41.8 µM. It also gave a GI50 [22] of 20.1 µM, a TGI [22] of 50.9 µM and a GI50 [23] of 23.6 µM. For the same compound, the TGI [23] was 79.4 µM, the GI50 [24] was 40.2 µM and the TGI [24] was greater than 100 µM. For the same compound, the GI50 [25] was 23.1 µM, the TGI [25] was greater than 100 µM and the GI50 [26] was 32.3 µM. It also gave a TGI [26] of 91.7 µM, a GI50 [27] of 22.6 µM and a TGI [27] of 57.1 µM. The GI50 [28] was 17.7 µM, the TGI [28] was 46.7 µM and the GI50 [29] was 13.2 µM. The TGI [29] was 39.5 µM, the GI50 [30] was 22.6 µM and the TGI [30] was 56.5 µM. It also gave a GI50 [31] of 42.2 µM, a TGI [31] greater than 100 µM and a GI50 [32] of 26.4 µM. The TGI [32] was 82.4 µM, the GI50 [33] was 46.7 µM and the TGI [33] was greater than 100 µM. It also gave a GI50 [34] of 24.9 µM, a TGI [34] of 92.9 µM and a GI50 [35] of 26.7 µM. The TGI [35] was 69.3 µM, the GI50 [36] was 41.1 µM and the TGI [36] was greater than 100 µM. For the same compound, the GI50 [37] was 34.8 µM, the TGI [37] was 76.7 µM and the GI50 [38] was 17.6 µM. It also gave a TGI [38] of 45.8 µM, a GI50 [39] of 22.4 µM and a TGI [39] of 56.4 µM. For the same compound, the GI50 [40] was 31.7 µM, the TGI [40] was greater than 100 µM and the GI50 [41] was 32.5 µM. It also gave a TGI [41] of 98.7 µM, a GI50 [42] of 44.9 µM and a TGI [42] greater than 100 µM. The GI50 [43] was 35.4 µM, the TGI [43] was greater than 100 µM and the GI50 [44] was 55 µM. It also gave a TGI [44] greater than 100 µM, a GI50 [45] of 30.4 µM and a TGI [45] of 87.9 µM. It also gave a GI50 [46] of 20 µM and a TGI [46] of 46.6 µM.

`O=c1c(-c2ccccc2)coc2cc(OC/C(=N/O)c3ccc(F)cc3)ccc12` showed a GI50 [1] of 19.9 µM, a TGI [1] greater than 100 µM and a GI50 [2] of 14.5 µM. For the same compound, the TGI [2] was 46 µM, the GI50 [47] was 17.1 µM and the TGI [47] was 33.4 µM. It also gave a GI50 [4] of 16.9 µM, a TGI [4] of 43.4 µM and a GI50 [5] of 0.0715 µM. The TGI [5] was 26.3 µM, the GI50 [48] was 20.3 µM and the TGI [48] was 41.8 µM. The GI50 [6] was 18.2 µM, the TGI [6] was 36.8 µM and the GI50 [7] was 17.7 µM. The TGI [7] was 37.5 µM, the GI50 [49] was 10.1 µM and the TGI [49] was 31.9 µM. It also gave a GI50 [8] of 13.7 µM, a TGI [8] of 59.3 µM and a GI50 [9] of 22.4 µM. For the same compound, the TGI [9] was 43.5 µM, the GI50 [10] was 17.5 µM and the TGI [10] was 41.3 µM. The GI50 [11] was 25.9 µM, the TGI [11] was greater than 100 µM and the GI50 [12] was 7.87 µM. For the same compound, the TGI [12] was 68.5 µM, the GI50 [13] was 17.4 µM and the TGI [13] was 38.2 µM. It also gave a GI50 [14] of 10.2 µM, a TGI [14] of 27.3 µM and a GI50 [15] of 19.3 µM. For the same compound, the TGI [15] was 41.8 µM, the GI50 [16] was 16 µM and the TGI [16] was 47.7 µM. It also gave a GI50 [17] of 14.5 µM, a TGI [17] of 33.1 µM and a GI50 [50] of 17.4 µM. For the same compound, the TGI [50] was 36 µM, the GI50 [18] was 16.8 µM and the TGI [18] was 92.9 µM. The GI50 [19] was 16.2 µM, the TGI [19] was greater than 100 µM and the GI50 [20] was 21.3 µM. The TGI [20] was 50.3 µM, the GI50 [21] was 19.3 µM and the TGI [21] was 42.1 µM. For the same compound, the GI50 [51] was 11.6 µM, the TGI [51] was 23.9 µM and the GI50 [22] was 25.1 µM. The TGI [22] was 77.7 µM, the GI50 [23] was 19 µM and the TGI [23] was 45.9 µM. For the same compound, the GI50 [24] was 18.9 µM, the TGI [24] was 50.7 µM and the GI50 [25] was 26 µM. It also gave a TGI [25] greater than 100 µM, a GI50 [52] of 15.2 µM and a TGI [52] of 29.6 µM. For the same compound, the GI50 [26] was 21.5 µM, the TGI [26] was 50.6 µM and the GI50 [27] was 23.9 µM. For the same compound, the TGI [27] was 62.3 µM, the GI50 [28] was 19.7 µM and the TGI [28] was 47.4 µM. For the same compound, the GI50 [29] was 16.9 µM, the TGI [29] was 39.5 µM and the GI50 [53] was 8.59 µM. For the same compound, the TGI [53] was 26.1 µM, the GI50 [54] was 24 µM and the TGI [54] was greater than 100 µM. The GI50 [55] was 18.8 µM, the TGI [55] was 44.9 µM and the GI50 [30] was 25.5 µM. It also gave a TGI [30] of 82.4 µM, a GI50 [31] of 18.7 µM and a TGI [31] of 53.5 µM. The GI50 [32] was 16.2 µM, the TGI [32] was 34.2 µM and the GI50 [33] was 19.6 µM. It also gave a TGI [33] of 43.4 µM, a GI50 [34] of 18.8 µM and a TGI [34] of 59.7 µM. The GI50 [35] was 27 µM, the TGI [35] was 53.5 µM and the GI50 [36] was 27.8 µM. For the same compound, the TGI [36] was greater than 100 µM, the GI50 [38] was 44.1 µM and the TGI [38] was greater than 100 µM. For the same compound, the GI50 [39] was 15 µM, the TGI [39] was 89.7 µM and the GI50 [40] was 17.4 µM. The TGI [40] was 50.2 µM, the GI50 [56] was 15.8 µM and the TGI [56] was 31.8 µM. It also gave a GI50 [42] of 18.1 µM, a TGI [42] of 43.8 µM and a GI50 [43] of 15.4 µM. The TGI [43] was 35.8 µM, the GI50 [44] was 19.2 µM and the TGI [44] was greater than 100 µM. For the same compound, the GI50 [45] was 13.6 µM, the TGI [45] was 35.9 µM and the GI50 [46] was 20.9 µM. For the same compound, the TGI [46] was 97.7 µM.
